Results from paper PMC12041661, “Dual MNK/VEGFR2 Inhibitor JDB153 Enhances Immunotherapeutic Efficiency and Chemosensitivity in Lung Cancer” (MedComm, 2025).

Assays:
[1] = biological target: T1, VEGFR2 (Homo sapiens, UniProt P35968); experiment: radiometric kinase assay; assay type: biochemical
T1 construct: gene KDR

[2] = biological target: T2, MNK1 (Homo sapiens, UniProt Q9BUB5); experiment: radiometric kinase assay; assay type: biochemical
T2 construct: gene MKNK1
T2 sequence (Q9BUB5 whole entry): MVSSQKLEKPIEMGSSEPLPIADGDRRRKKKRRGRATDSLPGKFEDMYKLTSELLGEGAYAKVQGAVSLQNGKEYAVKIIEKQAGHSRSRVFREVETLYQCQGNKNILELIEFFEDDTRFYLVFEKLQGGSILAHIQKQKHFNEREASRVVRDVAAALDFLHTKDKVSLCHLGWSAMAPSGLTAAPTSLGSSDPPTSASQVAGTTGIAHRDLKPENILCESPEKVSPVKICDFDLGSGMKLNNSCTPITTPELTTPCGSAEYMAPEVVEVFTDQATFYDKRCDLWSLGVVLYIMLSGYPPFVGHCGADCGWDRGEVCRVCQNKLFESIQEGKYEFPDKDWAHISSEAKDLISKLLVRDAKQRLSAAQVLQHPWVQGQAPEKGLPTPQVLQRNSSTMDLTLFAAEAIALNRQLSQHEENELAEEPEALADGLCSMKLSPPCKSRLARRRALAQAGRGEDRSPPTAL

T1 sequence (P35968 20-1356): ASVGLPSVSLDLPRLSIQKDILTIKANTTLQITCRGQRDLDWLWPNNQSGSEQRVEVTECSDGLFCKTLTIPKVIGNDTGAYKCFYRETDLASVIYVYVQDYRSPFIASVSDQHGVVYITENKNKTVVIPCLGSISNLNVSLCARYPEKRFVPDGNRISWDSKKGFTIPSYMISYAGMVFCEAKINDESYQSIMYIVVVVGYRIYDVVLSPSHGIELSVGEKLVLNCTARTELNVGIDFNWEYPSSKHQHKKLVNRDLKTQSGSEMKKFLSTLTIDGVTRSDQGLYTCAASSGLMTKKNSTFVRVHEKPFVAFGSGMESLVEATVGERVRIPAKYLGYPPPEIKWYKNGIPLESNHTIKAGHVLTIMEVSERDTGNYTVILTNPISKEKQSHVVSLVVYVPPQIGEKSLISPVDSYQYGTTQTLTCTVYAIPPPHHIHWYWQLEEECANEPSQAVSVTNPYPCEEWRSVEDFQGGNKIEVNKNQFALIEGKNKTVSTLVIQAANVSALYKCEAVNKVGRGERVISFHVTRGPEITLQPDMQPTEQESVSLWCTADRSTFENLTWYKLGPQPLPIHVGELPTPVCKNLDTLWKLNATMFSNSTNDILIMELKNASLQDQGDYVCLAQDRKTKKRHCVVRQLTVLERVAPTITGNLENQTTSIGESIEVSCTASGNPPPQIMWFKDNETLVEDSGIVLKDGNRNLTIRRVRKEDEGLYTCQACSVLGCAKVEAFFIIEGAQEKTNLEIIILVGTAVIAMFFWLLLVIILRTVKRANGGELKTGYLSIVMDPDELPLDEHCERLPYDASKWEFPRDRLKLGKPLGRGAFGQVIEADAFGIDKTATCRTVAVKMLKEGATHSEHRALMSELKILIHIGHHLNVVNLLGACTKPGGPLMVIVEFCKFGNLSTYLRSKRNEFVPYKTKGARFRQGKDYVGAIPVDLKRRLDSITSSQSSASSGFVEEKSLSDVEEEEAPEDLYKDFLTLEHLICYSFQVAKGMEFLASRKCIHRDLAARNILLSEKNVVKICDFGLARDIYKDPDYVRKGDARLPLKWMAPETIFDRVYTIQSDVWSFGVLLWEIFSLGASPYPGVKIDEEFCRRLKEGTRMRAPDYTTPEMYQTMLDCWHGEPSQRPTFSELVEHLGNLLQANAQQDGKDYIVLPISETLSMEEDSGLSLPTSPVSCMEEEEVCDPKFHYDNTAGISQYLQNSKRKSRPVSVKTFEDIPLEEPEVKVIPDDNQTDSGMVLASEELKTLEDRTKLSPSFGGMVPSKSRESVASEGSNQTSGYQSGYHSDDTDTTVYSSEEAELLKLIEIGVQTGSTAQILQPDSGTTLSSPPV

- IC50 [1]: 3 nM
- IC50 [2]: 26.6 nM
Structure (SMILES): Cc1cc(Nc2ncnn3cc(OCCN4CCC(F)(F)C4)c(C)c23)c(=O)n2c1C(=O)NC21CCCC1 [JDB153]
